Patent US12031137B2, “Compositions comprising SASP modulators and senescence attenuators and uses thereof for modulating cellular senescence” (RSEM, LIMITED PARTNERSHIP, priority 2016, dated 2024)

Legend:
[1] = biological target: T1, IRE1α's endoribonuclease activity (Mus musculus, UniProt Q9EQY0); test: SEMA3A-driven senescence in J774 cells with IRE1α RNase inhibitor; assay type: cell-based
T1 construct: endogenous in cells; host or cells: J774 (J774A.1) mouse macrophage-like cells
Procedure: FIG. 7C: Representative confocal immunofluorescence staining of γH2AX and DAPI of J774 macrophages stimulated with SEMA3A (100 ng/mL) or vehicle for 7 days (Scale bars are 100 μm). Higher magnification views of the outlined areas are shown (Scale bars are 50 μm). Immunoblots (FIG. 7D) for the XBP1(s) (spliced isoform) and PCR (FIG. 7E) for XBP1(s) and unspliced XBP1 (u) in J774 cell lysates treated with vehicle, S3A (100 ng/ml) and/or 4μ8c (1 ng/ml) at day 7 post-treatment. FIG. 7F: RT-qPCR for levels of Pai1, II6, II1β, Tgf-β1, Tp53, Ire1α and Tnfα in J774 stimulated with SEMA3A alone or with 4μ8c. β-actin was used as a reference gene. ***P<0.0001, *P<0.005. Scale bars: 100 μm for C & G. High mag C is 50 μm. Data are presented as mean±SEM;
To determine whether SEMA3A-driven senescence was occurring through IRE1α's kinase or RNAse activity, the selective cell-permeable coumarin o-hydroxyaldehyde pharmacological inhibitor of IRE1α's endoribonuclease activity, 4μ8c, was used. Exposure to 4μ8c (FIG. 7D) prevented SEMA3A-induced growth arrest and abrogated SEMA3A-induced senescence (data not shown). […] Ultimately, pharmacological inhibition of the endoribonuclease activity of IRE1α inhibited production of specific senescence-associated genes Vegf-a, Tgf-β1, II-1β, II-6, Pai-1, Tp53 while there is no effect on Tnf-α or IRE1α itself (FIG. 7F).
(§1) Semi-quantitative and Real-time PCR analysis. We isolated RNA using the GenElute™ Mammalian Total RNA Miniprep Kit (Sigma) and performed a digestion with DNase I to prevent amplification of genomic DNA. We reversed transcribed the RNA using M-MLV reverse transcriptase and analyzed gene expression using SybrGreen™ in an ABI Biosystems Real-Time PCR machine. β-actin was used as a reference gene. […] We investigated the splicing of XBP-1 by incubating the XBP-1 semi-quantitative PCR product with 0.4 U/μL of PstI enzyme for 5 hrs at 37° C. followed by separation on 2.5% agarose gel.
(§2) Western blotting. We enucleated eyes at varying time points and rapidly dissected and homogenized retinas for assessment of retinal protein levels. Protein concentration from retinal homogenate and cell lysates were assessed by BCA assay (Sigma), and then 30 μg of protein analyzed for each condition by standard SDS-PAGE technique.

[2] = test system: mouse model of oxygen-induced retinopathy (OIR); test: SA-β-gal staining of retinas in oxygen-induced retinopathy (OIR) after intravitreal injection; assay type: in vivo; details: single intravitreal injection at P12, vs vehicle
Excerpt: (§3) O2-induced retinopathy. Mouse pups from different strains (C57Bl/6 WT, LyzM-Cre, LysM-Cre/IRE1^fl/fl, LysM-Cre/IRE1^+/+, IRE1^fl/fl and LysM-Cre/ROSA26EYFP^fl/fl), and their fostering mothers (CD1, Charles River) were exposed to 75% 02 from postnatal day 7 (P7) to day 12 and returned to room air. This model serves as a proxy to human ocular neovascular diseases such as ROP and diabetic retinopathy characterized by a late phase of destructive pathological angiogenesis (72, 73). Upon return to room air, hypoxia-driven neovascularization (NV) develops from P14 onwards (27). We enucleated eyes at different time points and dissected the retinas for mRNA, protein assays or flatmounting.
Senescence-associated β-galactosidase (SA-β-gal) assay. Senescence-associated β-galactosidase assays were carried out as described previously (57, 75)
Quantification of SA-β-gal in vivo. Senescence-associated β-galactosidase staining in flatmount retinas or sagittal eye sections were analyzed using Image J software as described in FIG. 14.
(§4) Intravitreal injections. P2, P10 or P12 C57BL/6 pups were anesthetized with 3.0% isoflurane and injected in the vitreous chamber with 0.5 μL of lentivirus (see “Lentivirus production”), recombinant SEMA3A (100 ng/μL), metformin (10 μg/μL) or Aflibercept (10 μg/uL) using a 10-μL Hamilton syringe fitted with a […] glass capillary tip. Approximately 254±11.0 ng/μL of lentivirus Sh_GFP and 323.3±15.3 ng/μL containing Sh_Sema3a, Lv.Cre (15.0 ng/mL), Lv.GFP (15.0 ng/mL) was injected. Virus titers were assessed with the p24 ELISA kit (ZeptoMetrix). The titers of the lentiviruses used were (in ng p24) LV.Sh_RNA IRE1α (8.52 ng/mL), and LV.Sh_RNA.GFP (8.47 ng/mL).

[3] = test system: mouse model of oxygen-induced retinopathy (OIR); test: Avascular area and pre-retinal neovascularization in OIR flatmount retinas; assay type: in vivo
[4] = test system: mouse model of oxygen-induced retinopathy (OIR); test: Immunoblot and RT-qPCR of OIR retinas after intravitreal injection; assay type: in vivo; details: intravitreal injection at P12, P14 OIR retinas
Excerpt: as §3, §1, §4, §2

SEMA3A-FC = test: Sema 3A binding assay on plate-coated purified traps (saturation curves, KD); details: for Binding to SEMA3A: Table 2, Yes/No
Procedure: (§5) Sema 3A and AP-VEGF165 binding assays. Saturation curves for the determinations of KD of binding to SEMA 3A or VEGF165 were obtained as follow. Wells of high protein binding 96 well plates (Maxisorp, Nunc) were coated with purified traps diluted in PBS and blocked afterward with binding buffer (PBS containing 2% casein and 0.05% Tween 20). The SEMA3A-FC (R&D systems) or AP-VEGF165 ligands were diluted in binding buffer over an extensive range of concentrations and added to wells. Following an overnight incubation, wells were washed with PBS containing 0.05% tween. Bound SEMA3a-FC was detected using an HRP-linked anti-Human IgG (Biorad) and ECL substrate (Pierce). Alternatively, bound AP-VEGF165 was detected using CPD star substrate (Roche). The Chemiluminescent signal was acquired on a TECAN reader. Dissociation constant (KD) were determined by non-linear curve fitting using the Graph Pad prism software.
(§6) The relative affinity of traps of the present invention to SEMA3A and VEGF has been assessed. Traps were prepared as described in Example 8.

human VEGF165 = biological target: T2, human VEGF165 (Homo sapiens, UniProt P15692); test: AP-VEGF165 binding assay on plate-coated purified traps (saturation curves, KD); details: AP-VEGF165 ligand; for Kd: read-out: VEGF165 binding (dissociation constant)
T2 construct: made in house; host or cells: HEK293T
T2 sequence (P15692 27-191 isoform P15692-4): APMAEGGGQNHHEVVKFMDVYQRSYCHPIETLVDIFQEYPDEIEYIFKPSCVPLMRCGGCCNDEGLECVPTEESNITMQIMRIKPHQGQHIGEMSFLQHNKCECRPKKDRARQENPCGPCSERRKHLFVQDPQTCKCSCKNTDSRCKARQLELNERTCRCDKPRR
Procedure: Production of AP-VEGF165. the coding sequence of the human VEGF165 variant 1 (NM_001025366) was sub-cloned in the pAPtag5 vector (GenHunter), in-frame with an Alkaline Phosphatase domain (AP-VEGF165). HEK293T cells were transfected with the AP-VEGF165 construct using a polyethylenimine (PEI) transfection method. Following the overnight transfection step, cells were cultured for an additional 60 hr in serum free media (In vitrogen). The cell media were collected and concentrated on a PES device (Pierce). The concentrated AP-VEGF165 ligand was analysed on PAGE-SDS and quantified using SimplyBlue safe stain (Life technologies).
as §5, §6

[5] = J774 stimulated with SEMA3A alone or with 4μ8c
[6] = intravitreal injection at P12 of OIR
[7] = traps coated on plate, overnight incubation

T1 sequence (Q9EQY0 21-977): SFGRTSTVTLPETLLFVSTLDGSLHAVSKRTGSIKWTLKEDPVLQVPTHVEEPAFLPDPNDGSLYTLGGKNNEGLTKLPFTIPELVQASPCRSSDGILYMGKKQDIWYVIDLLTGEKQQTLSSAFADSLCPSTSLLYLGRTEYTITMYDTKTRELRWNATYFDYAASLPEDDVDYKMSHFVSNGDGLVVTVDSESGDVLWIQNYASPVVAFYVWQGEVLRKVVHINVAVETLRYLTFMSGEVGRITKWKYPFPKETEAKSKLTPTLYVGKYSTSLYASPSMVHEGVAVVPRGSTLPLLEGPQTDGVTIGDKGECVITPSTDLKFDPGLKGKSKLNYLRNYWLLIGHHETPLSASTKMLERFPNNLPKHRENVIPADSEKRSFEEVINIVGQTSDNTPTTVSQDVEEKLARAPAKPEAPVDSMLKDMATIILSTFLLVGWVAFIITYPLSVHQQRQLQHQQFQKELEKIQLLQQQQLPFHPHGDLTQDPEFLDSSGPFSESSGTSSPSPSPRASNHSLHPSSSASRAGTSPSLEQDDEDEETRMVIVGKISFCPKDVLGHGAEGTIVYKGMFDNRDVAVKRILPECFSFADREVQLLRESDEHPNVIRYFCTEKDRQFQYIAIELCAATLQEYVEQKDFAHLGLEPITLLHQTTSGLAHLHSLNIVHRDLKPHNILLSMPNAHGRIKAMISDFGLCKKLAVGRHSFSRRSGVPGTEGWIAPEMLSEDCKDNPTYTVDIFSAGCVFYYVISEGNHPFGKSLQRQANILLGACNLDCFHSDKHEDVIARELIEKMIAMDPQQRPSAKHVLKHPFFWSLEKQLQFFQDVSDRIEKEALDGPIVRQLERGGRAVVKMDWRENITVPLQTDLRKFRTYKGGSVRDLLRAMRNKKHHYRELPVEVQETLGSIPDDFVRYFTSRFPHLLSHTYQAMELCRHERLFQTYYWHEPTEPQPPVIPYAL

## Cc1cc(=O)oc2c(C=O)c(O)ccc12 [Trap 4μ8c]
[1]; J774, S3A 100 ng/ml, 4μ8c 1 ng/ml, day 7
  SEMA3A-mediated splicing and activation of XBP1: prevented
[1]; J774 cells, data not shown
  SEMA3A-induced growth arrest: prevented
  SEMA3A-induced senescence: abrogated
[1]; [5]
  Tnf-α or IRE1α expression (RT-qPCR): no effect
  production of senescence-associated genes Vegf-a, Tgf-β1, Il-1β, Il-6, Pai-1, Tp53 (RT-qPCR): inhibited

## Aflibercept: recombinant fusion protein made-up of the extracellular domains of human VEGF receptors 1 and 2 and an Fc portion
[2]
  SA-β-gal staining at P14 OIR: did not significantly influence
  SA-β-gal staining at P17 OIR (cellular senescence): did not significantly influence
[3]; intravitreal injection at P12, vs vehicle
  pathological neovascularization at P17 OIR: marked decrease
[3]; [6]
  rates of vascular regeneration at P14: does not modulate
  rates of vascular regeneration at P17: does not modulate
[4]
  drivers of senescence (Cdkn2a, Tp53, Il1β, Tgf-β1, Sema3a RT-qPCR): does not modulate

## Trap G: NRP1 trap a1a2-b1b2-c, aa about 22-856; SEQ ID NOs 67/68
SEMA3A-FC
  Binding to SEMA3A: Yes
SEMA3A-FC; in words
  preference for SEMA3A over VEGF binding: much less important
SEMA3A-FC; traps coated on plate, overnight incubation, read-out: SEMA 3A-FC binding (dissociation constant)
  Kd: 0.8 nM
Human VEGF165
  Kd: 6.75 nM
[2]
  SA-β-gal staining at P17 OIR (cellular senescence): significant attenuation

B1: Trap AE: NRP1 trap a1a2b1b2, aa about 22-560, D320K; SEQ ID NOs 53/54 (protein)
chain: MERGLPLLCAVLALVLAPAGAFRNDKCGDTIKIESPGYLTSPGYPHSYHPSEKCEWLIQAPDPYQRIMINFNPHFDLEDRDCKYDYVEVFDGENENGHFRGKFCGKIAPPPVVSSGPFLFIKFVSDYETHGAGFSIRYELFKRGPECSQNYTTPSGVIKSPGFPEKYPNSLECTYIVFAPKMSEIILEFESFDLEPDSNPPGGMFCRYDRLEIWDGFPDVGPHIGRYCGQKTPGRIRSSSGILSMVFYTDSAIAKEGFSANYSVLQSSVSEDFKCMEALGMESGEIHSDQITASSQYSTNWSAERSRLNYPENGWTPGEKSYREWIQVDLGLLRFVTAVGTQGAISKETKKKYYVKTYKIDVSSNGEDWITIKEGNKPVLFQGNTNPTDVVVAVFPKPLITRFVRIKPATWETGISMRFEVYGCKITDYPCSGMLGMVSGLISDSQITSSNQGDRNWMPENIRLVTSRSGWALPPAPHSYINEWLQIDLGEEKIVRGIIIQGGKHRENKVFMRKFKIGYSNNGSDWKMIMDDSKRKAKSFEGNNNYDTPELRTFPALSTRFIRIYPERATHGGLGLRMELLGCRSGSKENLYFQG
SEMA3A-FC
  Binding to SEMA3A: No
SEMA3A-FC; [7]
  SEMA 3A-FC binding (dissociation constant): No binding
Human VEGF165
  VEGF165 binding (dissociation constant): No binding

B2: Trap AD: NRP1 trap a1a2b1, aa about 22-424 and 561-583, D320K; SEQ ID NOs 51/52 (protein)
chain: MERGLPLLCAVLALVLAPAGAFRNDKCGDTIKIESPGYLTSPGYPHSYHPSEKCEWLIQAPDPYQRIMINFNPHFDLEDRDCKYDYVEVFDGENENGHFRGKFCGKIAPPPVVSSGPFLFIKFVSDYETHGAGFSIRYELFKRGPECSQNYTTPSGVIKSPGFPEKYPNSLECTYIVFAPKMSEIILEFESFDLEPDSNPPGGMFCRYDRLEIWDGFPDVGPHIGRYCGQKTPGRIRSSSGILSMVFYTDSAIAKEGFSANYSVLQSSVSEDFKCMEALGMESGEIHSDQITASSQYSTNWSAERSRLNYPENGWTPGEKSYREWIQVDLGLLRFVTAVGTQGAISKETKKKYYVKTYKIDVSSNGEDWITIKEGNKPVLFQGNTNPTDVVVAVFPKPLITRFVRIKPATWETGISMRFEVYGCRSGSKENLYFQG
SEMA3A-FC
  Binding to SEMA3A: No
SEMA3A-FC; [7]
  SEMA 3A-FC binding (dissociation constant): No binding
Human VEGF165
  VEGF165 binding (dissociation constant): No binding

B3: Trap M: NRP1 trap a1a2-b1, aa about 22-424; SEQ ID NOs 81/82 (protein)
chain: FRNDKCGDTIKIESPGYLTSPGYPHSYHPSEKCEWLIQAPDPYQRIMINFNPHFDLEDRDCKYDYVEVFDGENENGHFRGKFCGKIAPPPVVSSGPFLFIKFVSDYETHGAGFSIRYELFKRGPECSQNYTTPSGVIKSPGFPEKYPNSLECTYIVFAPKMSEIILEFESFDLEPDSNPPGGMFCRYDRLEIWDGFPDVGPHIGRYCGQKTPGRIRSSSGILSMVFYTDSAIAKEGFSANYSVLQSSVSEDFKCMEALGMESGEIHSDQITASSQYSTNWSAERSRLNYPENGWTPGEDSYREWIQVDLGLLRFVTAVGTQGAISKETKKKYYVKTYKIDVSSNGEDWITIKEGNKPVLFQGNTNPTDVVVAVFPKPLITRFVRIKPATWETGISMRFEVYGCRSGSKENLYFQG
SEMA3A-FC
  Binding to SEMA3A: Yes
SEMA3A-FC; see Table 6
  kd for SEMA3A relative to VEGF: about 20 ×
Human VEGF165
  Kd: 20.1 nM
[2]
  SA-β-gal staining at P17 OIR (cellular senescence): significant attenuation
